Laboratory results published in ChEMBL document CHEMBL5725235, “3-cyclohexenyl and cyclohexyl substituted indole and indazole compounds as RORgammaT inhibitors and uses thereof” (2016).

Assay: TR-FRET Assay: To identify novel antagonists of RORgammaT, an assay was developed which employs the interaction of RORgammaT with its co-activator peptide SRC1_2. This peptide mimics the recruitment of co-activators to RORgammaT through its interaction with the LXXLL (SEQ ID NO:1) (e.g., NR box) motifs (Xie et al., J. Immunol. 175: 3800-09, 2005; Kurebayashi et al., Biochem. Biophys. Res. Commun. 315: 919-27, 2004; Jin et al., Mol. Endocrinology 24:923-29, 2010). The RORγ-Ligand Binding Domain TR-FRET Assay was run according to the following protocol.HIS-tagged RORγ-LBD protein was expressed in SF9 cells using a baculovirus expression system. The RORγ-LBD protein was purified by […] chromatography. Separately, SF9 cells not expressing any recombinant protein were lysed and the lysate was added to the purified RORγ-LBD at 0.25 ul lysate (from 10,000 SF9 cells)/nM purified protein. The mixture was then diluted in assay buffer (50 mM Tris pH 7.0, 50 mM KCl, 1 mM EDTA, 0.1 mM DTT) to obtain RORγ-LBD final concentration of 3 nM in 384-well assay plate. Compounds to be tested were injected to the assay plate using Acoustic Droplet Ejection technology by Echo 550 liquid handler (Labcyte, Calif.). A stock of biotinylated-LXXLL peptide from coactivator SRC1 (Biotin-[…]) (SEQ ID NO:2) was prepared in assay buffer and added to each well (100 nM final concentration). […]

IC50 [nM]	Compound
343	CC1(C)CC(c2nn(C(=O)c3c(Cl)cccc3C(F)(F)F)c3cccc(F)c23)=CC[C@H]1C(=O)O
21	CC1(C(=O)O)CC=C(c2nn(C(=O)c3c(Cl)cccc3C(F)(F)F)c3cccc(F)c23)CC1 (configuration not stated)
